Measured values taken from patent US20170190705A1, “Compositions and Methods for Inhibiting BMP” (THE BRIGHAM AND WOMAN'S HOSPITAL, INC., priority 2014, published 2017).
Read-outs that look alike come from different tables or passages of the source.

Tests used:
Assay type in all cases: biochemical
[1] = molecular target: ABL1 (Homo sapiens, UniProt P00519); assay: Kinome profiling ABL1; conditions: for inhibition at 0.1 µM: 100 nM
Method: (§1) . The kinome-wide selectivity was determined following the methods previously reported by Mohedas et al., ACS Chem Biol 2013, 8, 1291-1302 and Sanvitale et al., PLoS One 2013, 8, e62721.

[2] = molecular target: T1, MER (Homo sapiens, UniProt Q12866); assay: Kinome profiling MER; conditions: read-out: Inhibitory activity MER; for inhibition at 0.1 µM: 100 nM
T1 sequence (Q12866 21-999): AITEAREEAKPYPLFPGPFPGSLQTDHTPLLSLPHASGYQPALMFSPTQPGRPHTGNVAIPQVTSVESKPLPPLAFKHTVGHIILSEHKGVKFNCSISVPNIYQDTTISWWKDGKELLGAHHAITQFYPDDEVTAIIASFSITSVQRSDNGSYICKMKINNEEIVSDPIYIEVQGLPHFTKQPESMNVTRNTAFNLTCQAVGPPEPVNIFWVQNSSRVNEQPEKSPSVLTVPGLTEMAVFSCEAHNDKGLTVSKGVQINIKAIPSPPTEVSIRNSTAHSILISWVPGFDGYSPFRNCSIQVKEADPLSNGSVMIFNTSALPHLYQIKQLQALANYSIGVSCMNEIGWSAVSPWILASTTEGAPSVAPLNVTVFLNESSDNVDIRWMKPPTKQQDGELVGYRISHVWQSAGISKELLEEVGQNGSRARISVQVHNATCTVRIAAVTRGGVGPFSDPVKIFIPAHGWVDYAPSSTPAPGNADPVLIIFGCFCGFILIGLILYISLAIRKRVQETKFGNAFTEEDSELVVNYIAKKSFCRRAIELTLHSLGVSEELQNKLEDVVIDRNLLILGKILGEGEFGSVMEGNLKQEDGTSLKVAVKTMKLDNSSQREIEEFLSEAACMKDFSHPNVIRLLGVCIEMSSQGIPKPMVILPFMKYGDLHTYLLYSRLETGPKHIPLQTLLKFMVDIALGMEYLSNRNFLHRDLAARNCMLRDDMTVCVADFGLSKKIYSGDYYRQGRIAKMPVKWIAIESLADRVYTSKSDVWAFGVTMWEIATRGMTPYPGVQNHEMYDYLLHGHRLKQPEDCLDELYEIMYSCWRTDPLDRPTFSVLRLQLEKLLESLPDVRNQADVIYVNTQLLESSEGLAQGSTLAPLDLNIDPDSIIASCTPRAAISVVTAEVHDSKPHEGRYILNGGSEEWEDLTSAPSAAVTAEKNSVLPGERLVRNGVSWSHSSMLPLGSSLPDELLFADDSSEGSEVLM
Method: as §1

[3] = molecular target: LOK (Homo sapiens, UniProt O94804); assay: Kinome profiling LOK; conditions: read-out: Inhibitory activity LOK; for inhibition at 0.1 µM: 100 nM
Sequence of LOK (O94804 whole entry): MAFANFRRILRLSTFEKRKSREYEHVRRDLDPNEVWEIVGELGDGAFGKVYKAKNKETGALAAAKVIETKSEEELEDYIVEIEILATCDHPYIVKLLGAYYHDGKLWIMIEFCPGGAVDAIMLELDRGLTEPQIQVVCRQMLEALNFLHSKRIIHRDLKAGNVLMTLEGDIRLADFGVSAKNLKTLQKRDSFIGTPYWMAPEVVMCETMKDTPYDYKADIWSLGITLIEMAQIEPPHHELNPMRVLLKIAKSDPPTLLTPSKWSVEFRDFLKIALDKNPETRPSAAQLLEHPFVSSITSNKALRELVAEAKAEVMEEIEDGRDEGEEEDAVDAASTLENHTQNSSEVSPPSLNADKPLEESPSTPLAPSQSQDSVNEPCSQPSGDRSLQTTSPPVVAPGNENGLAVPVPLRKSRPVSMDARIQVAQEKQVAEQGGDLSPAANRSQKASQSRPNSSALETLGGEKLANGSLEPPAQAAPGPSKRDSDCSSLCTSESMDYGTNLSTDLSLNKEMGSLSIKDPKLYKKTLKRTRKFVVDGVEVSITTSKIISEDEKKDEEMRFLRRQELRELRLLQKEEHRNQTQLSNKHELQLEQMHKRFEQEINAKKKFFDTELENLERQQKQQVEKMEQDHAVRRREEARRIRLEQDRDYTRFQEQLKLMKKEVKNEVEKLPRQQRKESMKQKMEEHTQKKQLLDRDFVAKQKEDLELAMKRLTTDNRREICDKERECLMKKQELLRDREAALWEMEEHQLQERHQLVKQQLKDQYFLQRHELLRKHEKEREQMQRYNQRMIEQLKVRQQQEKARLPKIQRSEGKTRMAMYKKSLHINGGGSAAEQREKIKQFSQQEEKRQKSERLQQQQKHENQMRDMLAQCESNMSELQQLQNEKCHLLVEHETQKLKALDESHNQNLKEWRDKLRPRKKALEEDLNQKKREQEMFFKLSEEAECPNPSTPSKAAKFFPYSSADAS
Method: as §1

[4] = molecular target: INSR (Homo sapiens, UniProt P06213); assay: Kinome profiling INSR; conditions: read-out: Inhibitory activity INSR; for inhibition at 0.1 µM: 100 nM
Sequence of INSR (P06213 28-1382): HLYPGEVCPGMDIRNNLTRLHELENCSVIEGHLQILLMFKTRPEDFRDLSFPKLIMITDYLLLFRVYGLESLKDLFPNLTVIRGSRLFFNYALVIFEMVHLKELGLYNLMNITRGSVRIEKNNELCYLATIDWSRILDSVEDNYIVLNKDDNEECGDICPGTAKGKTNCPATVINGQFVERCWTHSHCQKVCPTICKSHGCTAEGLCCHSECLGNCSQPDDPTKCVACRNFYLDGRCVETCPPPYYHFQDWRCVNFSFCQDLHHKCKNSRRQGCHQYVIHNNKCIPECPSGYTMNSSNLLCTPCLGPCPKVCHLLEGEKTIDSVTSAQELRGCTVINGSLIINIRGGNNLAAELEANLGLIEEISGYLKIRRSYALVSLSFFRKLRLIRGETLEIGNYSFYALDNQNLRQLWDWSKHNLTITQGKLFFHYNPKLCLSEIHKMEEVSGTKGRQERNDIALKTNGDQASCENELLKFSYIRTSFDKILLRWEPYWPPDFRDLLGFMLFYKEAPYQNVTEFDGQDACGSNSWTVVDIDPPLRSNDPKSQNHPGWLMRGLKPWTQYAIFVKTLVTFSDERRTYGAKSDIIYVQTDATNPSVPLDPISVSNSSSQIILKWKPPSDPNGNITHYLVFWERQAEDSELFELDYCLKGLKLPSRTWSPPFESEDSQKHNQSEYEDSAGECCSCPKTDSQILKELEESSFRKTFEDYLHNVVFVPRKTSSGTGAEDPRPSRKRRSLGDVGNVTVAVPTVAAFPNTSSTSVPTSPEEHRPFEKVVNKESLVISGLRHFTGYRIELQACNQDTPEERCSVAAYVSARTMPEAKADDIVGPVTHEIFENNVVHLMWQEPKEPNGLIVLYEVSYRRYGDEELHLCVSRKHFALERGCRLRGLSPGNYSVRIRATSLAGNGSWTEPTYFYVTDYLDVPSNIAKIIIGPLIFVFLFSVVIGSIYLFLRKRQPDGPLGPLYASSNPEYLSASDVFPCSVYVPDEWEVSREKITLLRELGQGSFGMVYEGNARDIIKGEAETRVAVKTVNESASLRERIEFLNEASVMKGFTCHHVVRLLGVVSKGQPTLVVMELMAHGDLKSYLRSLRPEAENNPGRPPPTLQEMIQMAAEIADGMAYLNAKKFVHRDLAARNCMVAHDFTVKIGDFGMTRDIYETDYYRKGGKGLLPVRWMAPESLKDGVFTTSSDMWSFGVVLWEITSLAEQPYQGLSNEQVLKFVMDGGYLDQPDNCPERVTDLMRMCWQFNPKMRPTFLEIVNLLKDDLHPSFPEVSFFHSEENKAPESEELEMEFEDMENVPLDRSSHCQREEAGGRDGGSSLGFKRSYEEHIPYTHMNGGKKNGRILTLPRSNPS
Method: as §1

[5] = molecular target: TIE2 (Homo sapiens, UniProt Q02763); assay: Kinome profiling TIE2; conditions: read-out: Inhibitory activity TIE2; for inhibition at 0.1 µM: 100 nM
Method: as §1

[6] = molecular target: TRKA (Homo sapiens, UniProt P04629); assay: Kinome profiling TRKA; conditions: read-out: Inhibitory activity TRKA; for inhibition at 0.1 µM: 100 nM
Method: as §1

[7] = molecular target: AMP-A1B1G1 (Homo sapiens, UniProt Q13131); assay: Kinome profiling AMP-A1B1G1; conditions: read-out: Inhibitory activity AMP-A1B1G1; for inhibition at 0.1 µM: 100 nM
Method: as §1

[8] = molecular target: FES (Homo sapiens, UniProt P07332); assay: Kinome profiling FES; conditions: read-out: Inhibitory activity FES; for inhibition at 0.1 µM: 100 nM
Sequence of FES (P07332 whole entry): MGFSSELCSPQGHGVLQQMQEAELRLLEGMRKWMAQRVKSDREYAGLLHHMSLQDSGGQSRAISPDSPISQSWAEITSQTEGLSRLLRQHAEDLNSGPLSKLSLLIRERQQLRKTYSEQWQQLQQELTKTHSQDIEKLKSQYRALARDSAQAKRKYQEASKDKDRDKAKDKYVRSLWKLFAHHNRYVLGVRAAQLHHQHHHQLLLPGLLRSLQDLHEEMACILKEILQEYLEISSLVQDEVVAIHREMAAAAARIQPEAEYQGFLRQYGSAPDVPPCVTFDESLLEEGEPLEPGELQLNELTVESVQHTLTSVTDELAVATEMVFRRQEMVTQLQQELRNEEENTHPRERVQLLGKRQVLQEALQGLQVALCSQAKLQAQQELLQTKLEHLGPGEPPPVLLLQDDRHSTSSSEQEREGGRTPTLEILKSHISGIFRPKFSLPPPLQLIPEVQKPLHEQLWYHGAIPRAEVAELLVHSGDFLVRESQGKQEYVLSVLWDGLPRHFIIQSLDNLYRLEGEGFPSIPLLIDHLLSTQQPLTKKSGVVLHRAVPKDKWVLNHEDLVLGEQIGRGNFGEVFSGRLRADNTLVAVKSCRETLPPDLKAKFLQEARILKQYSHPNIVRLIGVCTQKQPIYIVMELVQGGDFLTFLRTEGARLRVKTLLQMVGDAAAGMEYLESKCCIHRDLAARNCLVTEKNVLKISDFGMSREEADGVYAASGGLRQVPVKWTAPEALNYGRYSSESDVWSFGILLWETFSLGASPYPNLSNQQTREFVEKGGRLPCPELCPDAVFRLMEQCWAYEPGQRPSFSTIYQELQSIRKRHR
Method: as §1

[9] = molecular target: PAK6 (Homo sapiens, UniProt Q9NQU5); assay: Kinome profiling PAK6; conditions: read-out: Inhibitory activity PAK6; for inhibition at 0.1 µM: 100 nM
Sequence of PAK6 (Q9NQU5 whole entry): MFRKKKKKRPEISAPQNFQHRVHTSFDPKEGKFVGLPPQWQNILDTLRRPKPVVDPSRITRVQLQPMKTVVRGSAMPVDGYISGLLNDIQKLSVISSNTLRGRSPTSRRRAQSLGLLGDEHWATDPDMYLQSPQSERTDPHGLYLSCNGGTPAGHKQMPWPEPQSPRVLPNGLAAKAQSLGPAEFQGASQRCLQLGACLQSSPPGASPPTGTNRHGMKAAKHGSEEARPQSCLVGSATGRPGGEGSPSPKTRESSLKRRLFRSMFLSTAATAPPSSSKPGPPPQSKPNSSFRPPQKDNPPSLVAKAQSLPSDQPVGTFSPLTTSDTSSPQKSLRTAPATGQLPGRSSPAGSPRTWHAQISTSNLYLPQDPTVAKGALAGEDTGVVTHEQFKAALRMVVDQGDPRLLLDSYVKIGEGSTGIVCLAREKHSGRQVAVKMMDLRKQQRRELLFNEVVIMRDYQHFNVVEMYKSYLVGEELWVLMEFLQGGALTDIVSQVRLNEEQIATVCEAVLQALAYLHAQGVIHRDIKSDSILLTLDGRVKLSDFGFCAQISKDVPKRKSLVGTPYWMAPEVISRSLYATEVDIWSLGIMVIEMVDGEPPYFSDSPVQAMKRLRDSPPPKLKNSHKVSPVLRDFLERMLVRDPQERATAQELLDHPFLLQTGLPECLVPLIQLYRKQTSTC
Method: as §1

[10] = molecular target: T2, P38δ (Homo sapiens, UniProt O15264); assay: Kinome profiling P38δ; conditions: read-out: Inhibitory activity P38δ; for inhibition at 0.1 µM: 100 nM
T2 sequence (O15264 1-365): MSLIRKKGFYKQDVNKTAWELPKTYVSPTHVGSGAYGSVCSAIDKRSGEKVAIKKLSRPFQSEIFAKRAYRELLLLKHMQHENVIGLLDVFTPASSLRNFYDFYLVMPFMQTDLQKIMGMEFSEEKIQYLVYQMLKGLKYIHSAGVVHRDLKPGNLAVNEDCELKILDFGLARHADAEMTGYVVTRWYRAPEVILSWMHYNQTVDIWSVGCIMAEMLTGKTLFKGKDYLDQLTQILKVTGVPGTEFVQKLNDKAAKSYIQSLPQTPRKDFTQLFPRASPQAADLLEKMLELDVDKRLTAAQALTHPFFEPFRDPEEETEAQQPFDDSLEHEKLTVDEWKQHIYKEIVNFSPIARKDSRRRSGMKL
Method: as §1

[11] = molecular target: T3, DYRK2 (Homo sapiens, UniProt Q92630); assay: Kinome profiling DYRK2; conditions: read-out: Inhibitory activity DYRK2; for inhibition at 0.1 µM: 100 nM
T3 sequence (Q92630 1-601): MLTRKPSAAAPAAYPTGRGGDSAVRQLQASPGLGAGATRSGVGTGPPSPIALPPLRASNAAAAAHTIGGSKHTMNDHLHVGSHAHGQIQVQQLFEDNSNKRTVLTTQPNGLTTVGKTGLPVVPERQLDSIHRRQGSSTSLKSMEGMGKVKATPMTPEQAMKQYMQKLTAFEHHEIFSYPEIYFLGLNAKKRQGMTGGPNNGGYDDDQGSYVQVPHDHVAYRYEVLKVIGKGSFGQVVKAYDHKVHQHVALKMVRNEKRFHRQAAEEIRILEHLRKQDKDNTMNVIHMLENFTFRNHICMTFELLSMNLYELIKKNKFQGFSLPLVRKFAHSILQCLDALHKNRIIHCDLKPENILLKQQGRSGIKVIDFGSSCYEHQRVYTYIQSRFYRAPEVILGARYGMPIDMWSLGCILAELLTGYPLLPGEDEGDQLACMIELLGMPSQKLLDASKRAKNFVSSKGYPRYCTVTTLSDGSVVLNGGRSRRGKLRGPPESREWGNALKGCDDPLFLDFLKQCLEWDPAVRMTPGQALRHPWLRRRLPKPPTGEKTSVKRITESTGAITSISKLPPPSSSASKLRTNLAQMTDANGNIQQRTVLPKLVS
Method: as §1

[12] = Table 4, read-out: Inhibitory Activity ABL1
[13] = read-out: Inhibitory activity ABL1

Sequence of ABL1 (P00519 whole entry): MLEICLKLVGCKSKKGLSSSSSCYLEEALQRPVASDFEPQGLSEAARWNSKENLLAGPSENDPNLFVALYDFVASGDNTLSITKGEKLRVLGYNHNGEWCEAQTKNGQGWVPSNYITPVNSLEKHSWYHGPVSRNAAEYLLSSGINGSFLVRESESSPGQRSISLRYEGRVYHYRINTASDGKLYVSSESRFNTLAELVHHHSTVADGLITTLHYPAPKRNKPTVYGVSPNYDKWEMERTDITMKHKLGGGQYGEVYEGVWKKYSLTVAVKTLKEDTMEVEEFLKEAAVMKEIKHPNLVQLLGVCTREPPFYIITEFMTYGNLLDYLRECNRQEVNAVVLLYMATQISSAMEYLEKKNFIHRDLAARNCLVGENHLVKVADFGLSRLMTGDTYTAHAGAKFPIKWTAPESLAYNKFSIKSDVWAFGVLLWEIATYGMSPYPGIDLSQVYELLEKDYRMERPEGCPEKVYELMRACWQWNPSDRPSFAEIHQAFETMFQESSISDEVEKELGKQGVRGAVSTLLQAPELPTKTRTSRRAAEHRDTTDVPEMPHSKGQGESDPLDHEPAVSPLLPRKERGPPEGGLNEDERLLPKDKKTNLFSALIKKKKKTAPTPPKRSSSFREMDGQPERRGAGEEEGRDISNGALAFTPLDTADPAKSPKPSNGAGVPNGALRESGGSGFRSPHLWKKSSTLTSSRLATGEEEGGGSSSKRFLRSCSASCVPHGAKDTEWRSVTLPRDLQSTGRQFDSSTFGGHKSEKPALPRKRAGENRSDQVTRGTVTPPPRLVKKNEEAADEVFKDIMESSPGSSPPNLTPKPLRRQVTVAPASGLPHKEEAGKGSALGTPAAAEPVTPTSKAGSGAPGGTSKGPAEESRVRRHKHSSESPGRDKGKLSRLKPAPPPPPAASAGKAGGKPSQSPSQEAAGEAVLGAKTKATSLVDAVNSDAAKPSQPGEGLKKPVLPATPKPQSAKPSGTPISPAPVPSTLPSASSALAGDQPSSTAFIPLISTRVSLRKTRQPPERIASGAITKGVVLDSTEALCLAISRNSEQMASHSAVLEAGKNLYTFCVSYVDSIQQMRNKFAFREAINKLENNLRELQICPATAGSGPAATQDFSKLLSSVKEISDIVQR

| SMILES | inhibition at 0.1 µM [1, 13] [%] | inhibition at 1 µM [1, 13] [%] | inhibition at 0.1 µM [2] [%] | inhibition at 1 µM [2] [%] | inhibition at 0.1 µM [3] [%] | inhibition at 1 µM [3] [%] | inhibition at 0.1 µM [4] [%] | inhibition at 1 µM [4] [%] | inhibition at 0.1 µM [5] [%] | inhibition at 1 µM [5] [%] | inhibition at 0.1 µM [6] [%] | inhibition at 1 µM [6] [%] | inhibition at 0.1 µM [7] [%] | inhibition at 1 µM [7] [%] | inhibition at 0.1 µM [8] [%] | inhibition at 1 µM [8] [%] | inhibition at 0.1 µM [9] [%] | inhibition at 1 µM [9] [%] | inhibition at 0.1 µM [10] [%] | inhibition at 1 µM [10] [%] | also measured |
| --- | --- | --- | --- | --- | --- | --- | --- | --- | --- | --- | --- | --- | --- | --- | --- | --- | --- | --- | --- | --- | --- |
| COc1cc(-c2cc(-c3ccc(N4CCNCC4)cc3)cnc2C)cc(OC)c1OC [Compound 10, 1-(4-(6-methyl-5-(3,4,5-trimethoxyphenyl)pyridin-3-yl)phenyl)piperazine] | 56 | 93 | 8 | 36 | 9 | 47 | 3 | 3 | 1 | 0 | 2 | 1 | 5 | 1 | 7 | 9 | 1 | 5 | 1 | -1 | inhibition at 0.1 µM [1, 12]: 56%; inhibition at 1 µM [1, 12]: 93%; inhibition at 0.1 µM [11]: 2%; inhibition at 1 µM [11]: 1% |
| COc1cc(-c2cc(-c3ccc(N4CCNCC4)cc3)cnc2N)cc(OC)c1OC [Compound 15, 5-(4-(piperazin-1-yl)phenyl)-3-(3,4,5-trimethoxyphenyl)pyridin-2-amine] | 77 | 84 | 30 | 76 | 32 | 73 | 4 | 8 | 1 | 6 | 5 | 5 | 0 | 5 | 3 | 4 | 5 | 3 | 2 | 1 | inhibition at 0.1 µM [11]: 2%; inhibition at 1 µM [11]: 0% |
